# Data from the supplement of paper PMC10307832.
# Key:
# Test in all cases: relative viability (nuclei count vs DMSO), 5 days (fraction); higher = more cells survive
# NCI-H2085 = tested on: NCI-H2085
# Summary of the method: (§1)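 After 5 days of treatment, lung cancer cells in 1536-well plates were fixed and stained in a single step (final 0.05% Triton X-100, 1% formaldehyde, 1 ug/ml Hoechst) and their nuclei counted on 4× images. Treatment had been applied by pin tool the day after seeding as one drug alone or as a fixed anchor-drug dose with five library-drug doses (not always all listed) in √10 steps. Relative viability is the nuclei count of treated wells divided by that of vehicle wells, and values are medians of duplicate plates.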
# EMC-BAC-2 = tested on: EMC-BAC-2
# Summary of the method: as §1
# NCI-H1915 = tested on: NCI-H1915
# Summary of the method: as §1
# NCI-H322M = tested on: NCI-H322M
# Summary of the method: as §1
# NCI-H1734 = tested on: NCI-H1734
# Summary of the method: as §1
# NCI-H647 = tested on: NCI-H647
# Summary of the method: as §1
# EPLC-272H = tested on: EPLC-272H
# Summary of the method: as §1
# NCI-H2126 = tested on: NCI-H2126
# Summary of the method: as §1
# NCI-H2347 = tested on: NCI-H2347
# Summary of the method: as §1
# LXF-289 = tested on: LXF-289
# Summary of the method: as §1
# NCI-H1993 = tested on: NCI-H1993
# Summary of the method: as §1
# SW 1573 = tested on: SW 1573
# Summary of the method: as §1
# NCI-H2009 = tested on: NCI-H2009
# Summary of the method: as §1
# NCI-H727 = tested on: NCI-H727
# Summary of the method: as §1
# NCI-H1563 = tested on: NCI-H1563
# Summary of the method: as §1
# H3255 = tested on: H3255
# Summary of the method: as §1
# NCI-H661 = tested on: NCI-H661
# Summary of the method: as §1
# HOP-62 = tested on: HOP-62
# Summary of the method: as §1
# LCLC-97TM1 = tested on: LCLC-97TM1
# Summary of the method: as §1
# NCI-H2023 = tested on: NCI-H2023
# Summary of the method: as §1
# SK-LU-1 = tested on: SK-LU-1
# Summary of the method: as §1
# PC-14 = tested on: PC-14
# Summary of the method: as §1
compound,measurement,setting,value
Cc1sc2c(c1C)C(c1ccc(Cl)cc1)=N[C@@H](CC(=O)OC(C)(C)C)c1nnc(C)n1-2 [JQ1] + Cc1nc(Nc2ncc(C(=O)Nc3c(C)cccc3Cl)s2)cc(N2CCN(CCO)CC2)n1 [Dasatinib] (partner 0.075 µM),relative viability,NCI-H2085; first compound 0.04 µM,0.257
same,relative viability,NCI-H2085; first compound 0.1265 µM,0.275
same,relative viability,NCI-H2085; first compound 0.4 µM,0.189
same,relative viability,NCI-H2085; first compound 1.265 µM,0.223
same,relative viability,NCI-H2085; first compound 4 µM,0.176
same,relative viability,EMC-BAC-2; first compound 0.04 µM,0.33
same,relative viability,EMC-BAC-2; first compound 0.1265 µM,0.235
same,relative viability,EMC-BAC-2; first compound 0.4 µM,0.254
same,relative viability,EMC-BAC-2; first compound 1.265 µM,0.205
same,relative viability,EMC-BAC-2; first compound 4 µM,0.371
same,relative viability,NCI-H1915; first compound 0.04 µM,0.281
same,relative viability,NCI-H1915; first compound 0.1265 µM,0.303
same,relative viability,NCI-H1915; first compound 0.4 µM,0.317
same,relative viability,NCI-H1915; first compound 1.265 µM,0.249
same,relative viability,NCI-H1915; first compound 4 µM,0.191
same,relative viability,NCI-H322M; first compound 0.04 µM,0.234
same,relative viability,NCI-H322M; first compound 0.1265 µM,0.245
same,relative viability,NCI-H322M; first compound 0.4 µM,0.24
same,relative viability,NCI-H322M; first compound 1.265 µM,0.225
same,relative viability,NCI-H322M; first compound 4 µM,0.239
same,relative viability,NCI-H1734; first compound 0.04 µM,0.55
same,relative viability,NCI-H1734; first compound 0.1265 µM,0.444
same,relative viability,NCI-H1734; first compound 0.4 µM,0.457
same,relative viability,NCI-H1734; first compound 1.265 µM,0.454
same,relative viability,NCI-H1734; first compound 4 µM,0.382
same,relative viability,NCI-H647; first compound 0.04 µM,0.147
same,relative viability,NCI-H647; first compound 0.1265 µM,0.0904
same,relative viability,NCI-H647; first compound 0.4 µM,0.124
same,relative viability,NCI-H647; first compound 1.265 µM,0.045
same,relative viability,NCI-H647; first compound 4 µM,0.0403
same,relative viability,EPLC-272H; first compound 0.04 µM,0.352
same,relative viability,EPLC-272H; first compound 0.1265 µM,0.382
same,relative viability,EPLC-272H; first compound 0.4 µM,0.358
same,relative viability,EPLC-272H; first compound 1.265 µM,0.175
same,relative viability,EPLC-272H; first compound 4 µM,0.204
same,relative viability,NCI-H2126; first compound 0.04 µM,0.651
same,relative viability,NCI-H2126; first compound 0.1265 µM,0.575
same,relative viability,NCI-H2126; first compound 0.4 µM,0.431
same,relative viability,NCI-H2126; first compound 1.265 µM,0.433
same,relative viability,NCI-H2126; first compound 4 µM,0.35
same,relative viability,NCI-H2347; first compound 0.04 µM,0.273
same,relative viability,NCI-H2347; first compound 0.1265 µM,0.395
same,relative viability,NCI-H2347; first compound 0.4 µM,0.304
same,relative viability,NCI-H2347; first compound 1.265 µM,0.371
same,relative viability,NCI-H2347; first compound 4 µM,0.235
same,relative viability,LXF-289; first compound 0.04 µM,0.283
same,relative viability,LXF-289; first compound 0.1265 µM,0.117
same,relative viability,LXF-289; first compound 0.4 µM,0.212
same,relative viability,LXF-289; first compound 1.265 µM,0.156
same,relative viability,LXF-289; first compound 4 µM,0.152
same,relative viability,NCI-H1993; first compound 0.04 µM,0.574
same,relative viability,NCI-H1993; first compound 0.1265 µM,0.798
same,relative viability,NCI-H1993; first compound 0.4 µM,0.597
same,relative viability,NCI-H1993; first compound 1.265 µM,0.532
same,relative viability,NCI-H1993; first compound 4 µM,1.44
same,relative viability,SW 1573; first compound 0.04 µM,0.486
same,relative viability,SW 1573; first compound 0.1265 µM,0.447
same,relative viability,SW 1573; first compound 0.4 µM,0.31
same,relative viability,SW 1573; first compound 1.265 µM,0.218
same,relative viability,SW 1573; first compound 4 µM,0.23
same,relative viability,NCI-H2009; first compound 0.04 µM,0.258
same,relative viability,NCI-H2009; first compound 0.1265 µM,0.156
same,relative viability,NCI-H2009; first compound 0.4 µM,0.196
same,relative viability,NCI-H2009; first compound 1.265 µM,0.154
same,relative viability,NCI-H2009; first compound 4 µM,0.185
same,relative viability,NCI-H727; first compound 0.04 µM,0.354
same,relative viability,NCI-H727; first compound 0.1265 µM,0.555
same,relative viability,NCI-H727; first compound 0.4 µM,0.398
same,relative viability,NCI-H727; first compound 1.265 µM,0.295
same,relative viability,NCI-H727; first compound 4 µM,0.426
same,relative viability,NCI-H1563; first compound 0.04 µM,0.446
same,relative viability,NCI-H1563; first compound 0.1265 µM,0.405
same,relative viability,NCI-H1563; first compound 0.4 µM,0.533
same,relative viability,NCI-H1563; first compound 1.265 µM,0.443
same,relative viability,NCI-H1563; first compound 4 µM,0.362
same,relative viability,H3255; first compound 0.04 µM,0.438
same,relative viability,H3255; first compound 0.1265 µM,0.319
same,relative viability,H3255; first compound 0.4 µM,0.504
same,relative viability,H3255; first compound 1.265 µM,0.317
same,relative viability,H3255; first compound 4 µM,0.269
same,relative viability,NCI-H661; first compound 0.04 µM,0.814
same,relative viability,NCI-H661; first compound 0.1265 µM,0.564
same,relative viability,NCI-H661; first compound 0.4 µM,0.558
same,relative viability,NCI-H661; first compound 1.265 µM,0.379
same,relative viability,NCI-H661; first compound 4 µM,0.556
same,relative viability,HOP-62; first compound 0.04 µM,0.559
same,relative viability,HOP-62; first compound 0.1265 µM,0.31
same,relative viability,HOP-62; first compound 0.4 µM,0.355
same,relative viability,HOP-62; first compound 1.265 µM,0.158
same,relative viability,HOP-62; first compound 4 µM,0.116
same,relative viability,LCLC-97TM1; first compound 0.04 µM,0.896
same,relative viability,LCLC-97TM1; first compound 0.1265 µM,0.906
same,relative viability,LCLC-97TM1; first compound 0.4 µM,0.645
same,relative viability,LCLC-97TM1; first compound 1.265 µM,0.694
same,relative viability,LCLC-97TM1; first compound 4 µM,0.352
same,relative viability,NCI-H2023; first compound 0.04 µM,0.5
same,relative viability,NCI-H2023; first compound 0.1265 µM,0.339
same,relative viability,NCI-H2023; first compound 0.4 µM,0.272
same,relative viability,NCI-H2023; first compound 1.265 µM,0.178
same,relative viability,NCI-H2023; first compound 4 µM,0.15
same,relative viability,SK-LU-1; first compound 0.04 µM,0.185
same,relative viability,SK-LU-1; first compound 0.1265 µM,0.18
same,relative viability,SK-LU-1; first compound 0.4 µM,0.182
same,relative viability,SK-LU-1; first compound 1.265 µM,0.124
same,relative viability,SK-LU-1; first compound 4 µM,0.11
same,relative viability,PC-14; first compound 0.04 µM,0.283
same,relative viability,PC-14; first compound 0.1265 µM,0.187
same,relative viability,PC-14; first compound 0.4 µM,0.119
same,relative viability,PC-14; first compound 1.265 µM,0.14
same,relative viability,PC-14; first compound 4 µM,0.05
